# Where two headings read alike, the source gives them in different places.
# Columns and labels:
# [1] = In vitro drug release (dialysis membrane, PBS pH 7.4); format: physicochemical; settings: within the initial 4 hours; PBS pH 7.4, 37° C.
# Protocol: The drug release profile of MKT from MKT NPs and MKT Glu-NPs was investigated using a method previously described by the current inventors in [14]. 0.05 mg equivalent of MKT aqueous solution, MKT NPs, and MKT Glu-NPs were placed in dialysis membrane tubing ([…]) and placed in 20 mL of release medium comprised of PBS (pH 7.4) stirring at 100 rpm and 37° C. 1 mL aliquots were removed at predetermined intervals over 7 days and analyzed by UV spectroscopy at wavelength of 492 nm (λmax) and compared to UV absorbance of standard aqueous dilutions of MKT drug (r^2=0.9943).
# [2] = system: TRANSWELL in vitro BBB model, co-culture of RBE4 (rat brain endothelial) cells with C6 (rat astrocytoma) cells; assay: In vitro BBB permeation model; format: in vitro ADME; settings: end of the 48-hour study period, 10 μM equivalent, n=4
# Protocol: A […] in vitro BBB model was established to study the BBB permeation of MKT NPs and MKT Glu-NPs compared to drug solution according to a method previously described by the current inventors in [18]. […] permeable inserts were treated with 0.1% rat tail collagen I on the apical and basolateral sides. After 24 hours, C6 (rat astrocytoma) cells were seeded onto the basolateral side of the permeable insert (5×10^4 cells). After 48 hours, RBE4 (rat brain endothelial) cells were seeded onto the apical side of the permeable (5×10^4 cells). Cells were bathed in 1:1 mixture of Ham's F10:MEM media supplemented with 10% FBS with 1.5 mL in the basolateral chamber and 0.5 mL in the apical chamber, and were allowed to incubate (37° C. and 5% CO2) for 24 hours until confluence was established.
# After 24 hours, media was replaced with a 1:1 mixture of Ham's F10:MEM media supplemented with 1% FBS (experimental media), and cells were treated with 10 μM equivalent treatments of MKT aqueous drug solution, MKT NPs, and MKT Glu-NPs. 1 mL media samples were aliquoted from the basolateral chamber at predetermined intervals over a 48-hour period to investigate the trans-BBB permeation of the treatments. Aliquots were read by UV spectroscopy (at wavelength of 492 nm (λmax) and compared to UV absorbance of standard dilutions of MKT drug in experimental media (r^2=0.9990).
# [3] = system: human tau in HeLa cells stably expressing human tau; assay: Effect on tau level in a cellular AD model (Western blot); format: cell-based; settings: 3 μM, 24 hours, GAPDH normalization
# Protocol: AD model: HeLa cells stably expressing human tau were maintained in OPTIMEM media as described earlier. Treatment with nanoparticles or control were performed for 24 hours and samples analyzed by western blotting, as described earlier.
# In order to determine whether the newly formulated MKT-NPs are active, a cellular AD HeLa cell model that stably expresses human tau was used. Cells were treated with 3 μM of MKT uncoated NPs or MKT Glu-NPS or drug in solution or various controls for 24 hours.
# [4] = human subjects; cited from earlier work
# [5] = blockage by the BBB; cited from earlier work
# [6] = rat, in vivo; cited from earlier work
# [7] = dog, in vivo; cited from earlier work
smiles,measurement,setting,value
CCn1c(=O)/c(=C2\Sc3ccccc3N2C)s/c1=C\c1cccc[n+]1CC.[Cl-] [MKT-077],drug released,[1],Approximately 100%
same,drug permeated through the BBB model,[2],20%
same,reduction in tau levels,[3],greater and comparable reduction in tau levels
same,renal toxicity,[4],irreversible renal toxicity
same,brain permeation,[5],limited-to-no brain permeation
same,renal toxicity,[6],irreversible renal toxicity
same,renal toxicity,[7],irreversible renal toxicity

# Source: patent publication US11173152B1, “Glutathione-coated nanoparticles for delivery of MKT-077 across the blood-brain barrier” (UNIVERSITY OF SOUTH FLORIDA, priority 2015, dated 2021)
